From ChEMBL document CHEMBL1128056, “Methanodibenzosuberylpiperazines as potent multidrug resistance reversal agents” (Bioorg Med Chem Lett, 1995)

system: CHRC5 cell line; assay: Compound was tested for its cytotoxic effect on CHRC5 Chinese hamster cells at a dose of 1 uM; not cytotoxic; format: functional, cell-based; settings: Cricetulus griseus

Structure (SMILES) | Activity
OC(COc1cccc2ncccc12)CN1CCN(C2c3ccccc3C3C(c4ccccc42)C3(F)F)CC1 (stereo in doubt; form 1) [listing 1 of 2 here] | Non-toxic
OC(COc1cccc2ncccc12)CN1CCN(C2c3ccccc3C3C(c4ccccc42)C3(F)F)CC1 (stereo in doubt; form 2) [listing 1 of 2 here] | Non-toxic
OC(COc1cccc2ncccc12)CN1CCN(C2c3ccccc3C3C(c4ccccc42)C3(F)F)CC1 (stereo in doubt; form 5) [listing 1 of 2 here] | Non-toxic

system: CHRC5 cell line; assay: Tested for in vitro proliferation and viability of multidrug resistant CHRC5 Chinese hamster cells in the presence and absence of doxorubicin in a modified MTT assay; format: functional, cell-based, Cricetulus griseus; settings: Cricetulus griseus, CHRC5

Structure (SMILES) | EC50 [nM]
OC(COc1cccc2ncccc12)CN1CCN(C2c3ccccc3CCc3ccccc32)CC1 (stereo not drawn) | 65
COc1ccc(CCN(C)CCCC(C#N)(c2ccc(OC)c(OC)c2)C(C)C)cc1OC (stereo not drawn) | 1200
OC(COc1cccc2ncccc12)CN1CCN(C2c3ccccc3C3CC3c3ccccc32)CC1 (stereo not drawn) | 40
OC(COc1cccc2ncccc12)CN1CCN(C2c3ccccc3C3C(c4ccccc42)C3(Cl)Cl)CC1 (stereo in doubt; form 1) | 100

same assay, conditions: chrc5

Structure (SMILES) | EC50 [nM]
OC(COc1cccc2ncccc12)CN1CCN(C2c3ccccc3C3C(c4ccccc42)C3(Cl)Cl)CC1 (racemic) | 70
OC(COc1cccc2ncccc12)CN1CCN(C2c3ccccc3C3C(c4ccccc42)C3(F)F)CC1 (single isomer, unassigned) | 190
OC(COc1cccc2ncccc12)CN1CCN(C2c3ccccc3C3C(c4ccccc42)C3(F)F)CC1 (stereo in doubt; form 1) [listing 2 of 2 here] | 50
OC(COc1cccc2ncccc12)CN1CCN(C2c3ccccc3C3C(c4ccccc42)C3(Cl)Cl)CC1 (stereo in doubt; form 2) | 55
OC(COc1cccc2ncccc12)CN1CCN(C2c3ccccc3C3C(c4ccccc42)C3(F)F)CC1 (stereo in doubt; form 2) [listing 2 of 2 here] | 60
OC(COc1cccc2ncccc12)CN1CCN(C2c3ccccc3C3C(c4ccccc42)C3(F)F)CC1 (stereo in doubt; form 3) | 180
OC(COc1cccc2ncccc12)CN1CCN(C2c3ccccc3C3C(c4ccccc42)C3(F)F)CC1 (stereo in doubt; form 4) | 200
OC(COc1cccc2ncccc12)CN1CCN(C2c3ccccc3C3C(c4ccccc42)C3(F)F)CC1 (stereo in doubt; form 5) [listing 2 of 2 here] | 20.7

biological target: not listed separately; assay: Binding affinity to glycoprotein p was tested; settings: not given

Structure (SMILES) | IC50 [nM]
OC(COc1cccc2ncccc12)CN1CCN(C2c3ccccc3C3C(c4ccccc42)C3(F)F)CC1 (stereo in doubt; form 5) [listing 2 of 2 here] | 40

system: not listed separately; assay: Half-life at pH 2.0 and 37 degree C; format: ADME; settings: buffer

Structure (SMILES) | half-life [h]
OC(COc1cccc2ncccc12)CN1CCN(C2c3ccccc3C3C(c4ccccc42)C3(Cl)Cl)CC1 (stereo in doubt; form 1) | > 72
OC(COc1cccc2ncccc12)CN1CCN(C2c3ccccc3C3C(c4ccccc42)C3(F)F)CC1 (stereo in doubt; form 1) [listing 2 of 2 here] | > 72
